Reference: US9598396B2, “Tetrahydrophenanthridinones and tetrahydrocyclopentaquinolinones as PARP and tubulin polymerization inhibitors” (Janssen Pharmaceutica NV, priority 2008, dated 2017)

What was measured:
[1] = system: Human colon carcinoma HCT116 cells; experiment: Detection of antiproliferative activity (Alamar Blue assay); type: cell-based; conditions: HCT-116, 96 h, 4-day incubation, read-out: Cellular assay HCT116 pIC50 (converted)
Method: Example C.4 Detection of Antiproliferative Activity
Human colon carcinoma HCT116 cells obtained from the ATCC were cultured in McCoy's 5A medium supplemented with 2 mM L-Glutamine, 50 μg/ml gentamicin and 10% heat inactivated fetal calf serum.
Reagents used in the Alamar Blue Assay
Resazurin was purchased from Aldrich (Prod. No. 199303). Potassium ferrocyanide, potassium ferricyanide, KH2PO4 and K2HPO4 were purchased from Sigma (Prod. Nos. P9387, P8131, P5655 and P8281, respectively).
Potassium Phosphate Buffer 0.1 M (PPB) was made as follows: 2.72 gram KH2PO4 and 13.86 gram K2HPO4 were dissolved in 500 ml milli-Q H2O, the pH was adjusted to pH 7.4 and the volume was brought to 1 liter with milli-Q H2O; the buffer was filter sterilised and stored at room temperature. Resazurin stock solution (PPB-A) was prepared fresh by dissolving 45 mg resazurin in 15 ml PBS. 30 mM potassium ferricyanide (PPB-B) was prepared by dissolving 0.987 gram potassium ferricyanide in 100 ml PPB. 30 mM potassium ferrocyanide (PPB-C) was prepared by dissolving 1.266 gram potassium ferrocyanide in 100 ml PPB.
Mixture of PPB-A, PPB-B and PPB-C was prepared by mixing equal volumes of the respective solutions. Resazurin work solution (herein termed “Alamar Blue” solution) was prepared by diluting said mixture 20× (vol/vol) in PPB and filter sterilising; the Alamar Blue solution could be kept at 4° C. for a maximum of 2 weeks.
Procedure of the Alamar Blue Assay
For experiments in 384 wells plates the cells were seeded at a density of 4.5×10^3 cells/ml in Falcon 384-well culture plates (Life Technologies, Merelbeke, Belgium), black with clear bottom, in 45 μl culture medium. Cells were allowed to adhere to plastic for 24 hours. The tested compound was pre-diluted (1/50 in culture medium) and 5 μl pre-diluted compound was added to the wells. Following 4-day incubation, 10 μl of the Alamar Blue solution was added to each well and the cells were further incubated for 4 hours (HCT116) or 24 hours (PC-3) at 37° C. The fluorescence intensity was measured for each well on a Fluorescence plate reader (Fluorskan, Labsystems, 540 nm excitation and 590 nm emission)
The antiproliferative activity was calculated as percentage of remaining viable cells in treated versus control (untreated cells) conditions. Within an experiment, the result for each experimental condition is the mean of 3 replicate wells. When appropriate, the experiments were repeated to establish full concentration-response curves. […] Herein the effects of tested compounds are expressed as pIC50 (the negative log value of the IC50 value) (see Table 3).

TANK-2 enzyme = TANK-2 enzyme (Homo sapiens (Human), UniProt Q9H2K2); experiment: In vitro Scintillation Proximity Assay (SPA) for TANK-2 inhibitory activity; type: biochemical; conditions: auto-poly(ADP-ribosyl)ation, [3H]-NAD+, Ni flash plates (96 or 384 well)
TANK-2 enzyme, sequence (Q9H2K2 whole entry): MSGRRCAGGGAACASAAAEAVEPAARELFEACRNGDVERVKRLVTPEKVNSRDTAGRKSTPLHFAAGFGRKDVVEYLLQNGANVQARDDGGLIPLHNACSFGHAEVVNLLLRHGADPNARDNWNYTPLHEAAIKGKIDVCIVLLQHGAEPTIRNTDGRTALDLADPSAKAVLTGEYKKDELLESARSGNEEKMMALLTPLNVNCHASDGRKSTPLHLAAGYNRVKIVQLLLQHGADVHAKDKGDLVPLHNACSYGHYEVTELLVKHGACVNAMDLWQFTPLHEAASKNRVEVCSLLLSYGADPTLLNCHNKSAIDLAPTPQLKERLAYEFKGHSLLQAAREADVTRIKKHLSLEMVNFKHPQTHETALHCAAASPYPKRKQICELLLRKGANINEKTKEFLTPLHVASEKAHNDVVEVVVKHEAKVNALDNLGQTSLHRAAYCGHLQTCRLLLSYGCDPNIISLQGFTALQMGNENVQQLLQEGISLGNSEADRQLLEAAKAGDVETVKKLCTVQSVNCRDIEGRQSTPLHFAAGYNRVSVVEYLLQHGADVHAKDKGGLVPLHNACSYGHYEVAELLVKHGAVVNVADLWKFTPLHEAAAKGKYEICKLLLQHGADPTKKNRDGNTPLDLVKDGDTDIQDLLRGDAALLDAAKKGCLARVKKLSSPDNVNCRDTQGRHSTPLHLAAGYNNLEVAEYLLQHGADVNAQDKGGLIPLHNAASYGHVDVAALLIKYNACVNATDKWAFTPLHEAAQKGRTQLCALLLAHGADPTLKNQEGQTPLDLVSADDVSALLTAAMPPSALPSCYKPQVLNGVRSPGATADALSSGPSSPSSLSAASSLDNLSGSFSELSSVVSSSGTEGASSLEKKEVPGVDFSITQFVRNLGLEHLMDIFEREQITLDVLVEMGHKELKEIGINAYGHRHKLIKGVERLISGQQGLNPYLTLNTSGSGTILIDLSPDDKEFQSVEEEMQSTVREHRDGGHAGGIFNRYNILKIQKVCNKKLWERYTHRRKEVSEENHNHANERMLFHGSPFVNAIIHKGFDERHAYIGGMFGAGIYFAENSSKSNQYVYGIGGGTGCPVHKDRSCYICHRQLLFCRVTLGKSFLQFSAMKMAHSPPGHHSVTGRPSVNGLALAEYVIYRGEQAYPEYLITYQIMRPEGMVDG
Method: C.2.In Vitro Scintillation Proximity Assay (SPA) for TANK-2 Inhibitory Activity
Compounds of the present invention were tested in an in vitro assay based on SPA technology with Ni Flash plates (96 or 384 well).
In principle, the assay relies upon SPA technology for the detection of auto-poly(ADP-ribosyl)ation of TANK-2 protein using [^3H]-nicotinamide adenine dinucleotide ([^3H]-NAD^+) as ADP-ribosyl donor.
A stock solution of 100 nM [^3H]-NAD^+/NAD (0.1 mCi/ml, supplier: Perkin Elmer) and 25 μM NAD (Sigma) was made in assay buffer (60 mM Tris/HCl, pH 7.4; 0.9 mM DTT; 6 mM MgCl2). The TANK-2 enzyme was produced as described in EP1238063. 60 μl of assay buffer, together with 1 μl of compound in DMSO, 20 μl of [^3H]-NAD^+/NAD and 20 μl of TANK-2 enzyme (final concentration 8 μg/ml) was added per well into a 96-well Ni-coated flash plate (Perkin Elmer). After incubation of the mixture for 120 minutes at room temperature, the reaction was terminated by adding 60 μl of stopsolution (42.6 mg NAD in 6 ml H2O). The plates were covered with a plate sealer and placed in a TopCountNXT™ (Packard) for scintillation counting. Values were expressed as counts per minute (cpm). For each experiment, controls (containing TANK-2 enzyme and DMSO without compound), a blank incubation (containing DMSO but no TANK-2 enzyme or compound) and samples (containing TANK-2 enzyme and compound dissolved in DMSO) were run in parallel. All compounds tested were dissolved and eventually further diluted in DMSO. In first instance, compounds were tested at a concentration of 10^−5M. […] In each test, the blank value was subtracted from both the control and the sample values. The control sample represented maximal TANK-2 enzyme activity. For each sample, the amount of cpm was expressed as a percentage of the mean cpm value of the controls. […] Herein the effects of test compounds are expressed as pIC50 (the negative log value of the IC50-value). As reference compounds, 3-aminobenzamide and 4-amino-1,8-naphtalimide were included to validate the SPA assay. Herein the assay was described using 96-well plates. In the assay using 384-well plates the same final concentrations were used and volumes were adapted.

tubulin = experiment: Tubulin polymerization assay; type: biochemical; conditions: inhibition of polymerization at 20 μM and 5 μM
Method: Example C.5 Polymerization Assay
The tubulin polymerization assay is an adaptation of an assay originally described by Bonne, D. et al. (J. Biol. Chem., 1985, 260:2819-25). The assay kit was purchased from Cytoskeleton, Inc. (catalogue number BK011) and the assay was performed as described by the supplier with the following modifications. The assay was run in a 384-well black Proxiplate (Perkin Elmer) and volumes were adapted accordingly. The reactions were carried out in a final volume of 10 μl. Compounds were added to 25 μl of the reaction mix in 96-well PP plates (Corning) on ice and 10 μl of this mixture was dispensed into duplicates of the 384-well Proxiplates pre-warmed to 37° C. in a Fluoroskan Ascent plate reader (Thermo Scientific). Fluorescence measurements were taken every minute for one hour. The maximum slope of each well was determined (linear regression through 4 consecutive points) and polymerization was calculated as a percentage of polymerization observed in the absence of compound.

[2] = system: human prostate cancer PC3 cells; experiment: Eb1 Comet (microtubule disruption) assay; type: cell-based; conditions: 1 hour treatment, LAC = concentration where Eb1 foci absent in at least 50% of treated cells
Text: Example C.6 Eb1 Comet (Microtubule Disruption) Assay
The Eb1 Comet assay relies on the detection of the Eb1 protein at the plus end of polymerizing microtubules (Mimori-Kiyosue, 2000) using indirect immunofluorescence. Disruption of microtubule dynamics through de-polymerization or stabilization results in a de-localization of Eb1 from the growing microtubule ends and this is visualized by the disappearance of Eb1 containing cytoplasmic foci.
Briefly, human prostate cancer PC3 cells obtained from the American Type Culture Collection were grown in 96-well plates (Greiner, cat. no. 655090) in HAM's F12 medium as recommended by the provider (ATCC). The cells were treated for 1 hour at 37° C. with compounds dissolved in DMSO (0.6% final DMSO concentration). The culture medium was then removed by aspiration and the cells were fixed by adding cold methanol (−20 C). After a 15 minutes incubation at −20° C., the cells were washed twice with DPBS (Gibco) containing 0.5% Triton X-100. Mouse Eb1 antibody (BD Transduction Laboratories, cat. no. 610534) was added to the cells (1/250 dilution in DPBS containing 1% BSA) and incubated overnight at room temperature. The antibody was subsequently removed and the cells washed twice with DPBS, 0.5% Triton X-100. Secondary goat anti-mouse antibody conjugated to Alexa 488 fluorescent dye (Molecular Probes) was added at a 1/500 dilution in DPBS, 1% BSA and incubated for 1 hour at 37° C. The cells were washed twice with DPBS, 0.5% Triton X-100 and then DPBS containing 0.5% Triton X-100 and 1/5000 Hoechst 33342 (Molecular Probes) was added. Microscopy based Eb1 foci visualization was carried out using an IN Cell Analyser 1000 (Amersham Biosciences) using a 20× objective. Compound dependent microtubule disruption was visually determined by the disappearance in Eb1 foci. The lowest active concentration (LAC) was determined as the concentration where Eb1 foci were absent in at least 50% of the treated cells. Herein the effects of tested compounds are expressed as pLAC (the negative log value of the LAC value) (see Table 3).

IC50 [1]: 0.0575 µM
in vitro SPA assay TANK-2 pIC50 (TANK-2 enzyme): 7.72
Structure (SMILES): COc1cc(OC)nc(CC(C)(C#N)c2ccc3c4c(c(=O)[nH]c3c2)CCCC4)n1 (stereo not shown) [Co. No. 6]
Assay Tubulin Polymerization score (tubulin): 3 (a compound showing more than 50% inhibition at 5 μM is reported as score 3)
Cellular assay Eb1 pLAC [2]: 8
